Experimental data taken from patent US20230212143A9, “PRMT5 INHIBITOR COMPOUNDS” (University of Florida Research Foundation, Incorporated, priority 2019, published 2023).

What was measured:
PRMT5 [1] = target: T1, PRMT5 (Homo sapiens, UniProt O14744); test: AlphaLISA enzymatic inhibition assay; type: biochemical; parameters: made in house; host or cells: Sf9 insect cells (Bac-to-Bac baculovirus system)
Source text: (§1) Protein expression and purification. […] Enzymatic inhibition assay. […] Cancer cell lines. […] Cell proliferation assay. […] Western blot.

PRMT5:MEP50 = target: T2, PRMT5:MEP50 (Homo sapiens, UniProt O14744); test: MTase-Glo enzymatic inhibition assay; type: biochemical; settings: 100 nM PRMT5:MEP50, 10 μM SAM, 2 μM histone H4 (1-21)
T2 construct: made in house; host or cells: Sf9 insect cells (Bac-to-Bac baculovirus system)
T2 sequence (O14744 whole entry): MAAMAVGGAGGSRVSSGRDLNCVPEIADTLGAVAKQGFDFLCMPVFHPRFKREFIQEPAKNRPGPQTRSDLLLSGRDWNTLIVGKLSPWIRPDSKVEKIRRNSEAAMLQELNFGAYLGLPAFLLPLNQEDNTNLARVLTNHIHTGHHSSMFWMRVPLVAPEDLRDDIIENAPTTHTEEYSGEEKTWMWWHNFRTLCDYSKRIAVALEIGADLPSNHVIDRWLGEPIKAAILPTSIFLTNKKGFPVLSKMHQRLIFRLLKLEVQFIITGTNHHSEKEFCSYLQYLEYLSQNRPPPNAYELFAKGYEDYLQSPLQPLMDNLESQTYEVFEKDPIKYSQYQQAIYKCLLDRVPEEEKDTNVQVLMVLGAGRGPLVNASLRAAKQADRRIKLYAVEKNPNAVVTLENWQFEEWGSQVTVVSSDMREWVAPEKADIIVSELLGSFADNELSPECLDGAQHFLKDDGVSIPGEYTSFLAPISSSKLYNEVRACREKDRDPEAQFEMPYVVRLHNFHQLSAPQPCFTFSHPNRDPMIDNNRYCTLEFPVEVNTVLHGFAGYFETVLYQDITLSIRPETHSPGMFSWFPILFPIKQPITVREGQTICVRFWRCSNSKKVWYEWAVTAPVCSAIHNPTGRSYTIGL
T2 sequence (Q9BQA1 whole entry partner): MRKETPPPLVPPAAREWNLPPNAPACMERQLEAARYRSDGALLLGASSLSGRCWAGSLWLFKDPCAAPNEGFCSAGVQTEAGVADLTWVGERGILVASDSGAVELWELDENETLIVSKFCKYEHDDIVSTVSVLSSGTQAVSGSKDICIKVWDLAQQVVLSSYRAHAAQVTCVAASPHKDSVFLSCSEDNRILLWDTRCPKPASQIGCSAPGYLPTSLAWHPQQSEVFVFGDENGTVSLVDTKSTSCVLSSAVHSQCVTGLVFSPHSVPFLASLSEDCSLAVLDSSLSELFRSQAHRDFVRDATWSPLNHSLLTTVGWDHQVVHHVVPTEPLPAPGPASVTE
Source text: as §1

PRMT5 [2] = target: T1, PRMT5; test: Cellular Thermal Shift Assay; type: cell-based; parameters: endogenous in cells; host or cells: MDA-MB-231; settings: MDA-MB-231 triple negative breast cancer cells

T1 sequence (O14744 whole entry): as the sequence (O14744 whole entry) above
T1 sequence (Q9BQA1 whole entry partner): as the sequence (Q9BQA1 whole entry partner) above

SMILES | IC50 (PRMT5:MEP50; 11-series) [nM] | IC50 (PRMT5:MEP50; 15-series) [nM] | other results
CCn1c2ccccc2c2cc(CNCc3ccccn3)ccc21 [CMP5] | – | – | enzymatic inhibition activity (PRMT5 [1]): weak
CCn1c2c(c3cc(C(=O)NCc4ccc5ccc(N)nc5c4)ccc31)CCCC2 [Compound 11-1F] | 1340 | – | –
Nc1ccc2ccc(CNC(=O)c3ccc4c(c3)c3c(n4CCO)CCCC3)cc2n1 [Compound 11-2F] | 883 | – | –
CCn1c2c(c3cc(C(=O)NCc4ccc5c(N)nc(N)nc5c4)ccc31)CCCC2 [Compound 11-9F] | – | – | PRMT5 melting temperature increase (PRMT5 [2]): 1.5 degree Celsius
CC(=O)N1CCC(Nc2cc(C(=O)NCc3ccc4ccc(N)nc4c3)ncn2)CC1 [Compound 15-1F] | – | 218 | –
CC(=O)N1CCC(Nc2cc(C(=O)NCc3ccc4c(N)nc(N)nc4c3)ncn2)CC1 [Compound 15-2F] | – | 152 | –
